Entries after “also recorded” stand apart in the source; their conditions may differ.
Columns and labels:
Bacillus megaterium [1] = assay: Antibiotic sensitivity screening test in petri dishes (MIC method); assay type: cell-based; details: 10^-1 to 10^-5 mg/mL
Protocol: (§1) The bacterial culture medium (HuanKai Microbial, Guangzhou, China) containing peptone 5 g, beef extract 3 g, NaCl 5 g, agar 15 g, and MnSO4 5 mg in 1 L ddH2O (pH=7.2) was prepared in conical flask (Drtech, Guangzhou, China) and was sterilized in the autoclave (HIRAYAMA, HEV-50, Japan) at 121° C. for 30 min. Bacillus megaterium (total 1*10^7 per culture) was cultured in the incubator (HettCube 200, Germany) at 37° C. for 24 h.
To test whether antibiotics can control the growth of Bacillus megaterium in vitro and in vivo, we first carried out an antibiotic sensitivity screening test in petri dishes which were made in example 1. The sensitivity of Bacillus megaterium to several major antimicrobial agents including ampicillin, vancomycin, neomycin, metronidazole and tetracycline were examined using the minimum inhibitory concentration (MIC) method. Ampicillin, vancomycin, neomycin, metronidazole, and tetracycline (purchased from Sigma, USA) at various concentrations (10^−1, 10^−2, 10^−3, 10^−4, 10^−5 mg/mL) were added into cooled medium.
as §1, with “Bacillus megaterium (total 1*10^7 per culture) was cultured in the incubator (HettCube 200, Germany) at 37° C. for 24 h.” left out

Bacillus megaterium [2] = assay: Bacillus megaterium subretinal inoculation model, drusenoid pathology in monkey retinal tissues; assay type: in vivo, Macaca fascicularis; details: intravitreous, 0.5 mg, one injection on Day 2 post bacterial inoculation; macaque
Protocol: The macaques were sedated by intramuscular injection of a mixture of tiletamine hydrochloride (2.5 mg/kg) and xolazepam hydrochloride (2.5 mg/kg). After instilling topical anesthesia (0.5% proparacaine hydrochloride), the eyes were immediately visualized in vivo using a light microscope. The pupils were then dilated with 0.5% tropicamide and 0.5% phenylephrine to obtain the fundus photographs. […] Under microscopic monitoring, 20 μl of PBS (with or without bacteria) was injected into the subretinal space between photo receptors and RPE (retinal pigment epithelium), using a NanoFil Syringe Nanofil-100 for Microinjection (World Precision Instruments, USA). All procedures were done using sterile instruments. The macaque was euthanized 47 days post inoculation and the eyeball was enucleated for histological analyses. The eyeballs were fixed in 4% paraformaldehyde for 48 h and then embedded in paraffin. Sections were cut on a microtome at 6 μm and stained with H&E.
We examined whether subretinal inoculation of AH and VH cultures, as well as the cultured single species of B. megaterium led to AMD like pathology in macaque. About 20 CFU of bacteria (in 20 μl PBS) from AH, VH, and B. megaterium cultures were injected subretinally and PBS was used as a control (illustrated in FIG. 6). […]

## Cc1ncc([N+](=O)[O-])n1CCO [metronidazole]
Bacillus megaterium [1]
  fold less effective in controlling the growth of Bacillus megaterium (relative to neomycin): 10000 fold

## CN[C@H](CC(C)C)C(=O)N[C@H]1C(=O)N[C@@H](CC(N)=O)C(=O)N[C@H]2C(=O)N[C@H]3C(=O)N[C@H](C(=O)N[C@H](C(=O)O)c4cc(O)cc(O)c4-c4cc3ccc4O)[C@H](O)c3ccc(c(Cl)c3)Oc3cc2cc(c3O[C@@H]2O[C@H](CO)[C@@H](O)[C@H](O)[C@H]2O[C@H]2C[C@](C)(N)[C@H](O)[C@H](C)O2)Oc2ccc(cc2Cl)[C@H]1O [vancomycin]
Bacillus megaterium [2]
  size of drusenoid lesion in retinal tissue: reduce drusenoid lesion; also recorded: reduction in the size of drusenoid lesion

## neomycin
Bacillus megaterium [1]; 1*10^7 bacteria per culture, 37° C., 24 h
  sensitivity of Bacillus megaterium to antimicrobial agents (control of growth in vitro): most sensitive; also recorded: best in vitro activity

Reference: patent publication US12016312B2, “Animal models, screening methods, and treatment methods for intraocular diseases or disorders” (ZHUHAI QIWEI BIO-TECHNOLOGY LTD., priority 2018, dated 2024)
